This note sets out measurements from ChEMBL document CHEMBL1201862, “PubChem BioAssay data set” (2004).

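Tested at 5 concentrations; 48 h exposure; 96-well plates; endpoints linearly interpolated, else capped at highest concentration. GI50 marks 50% less growth.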 Calls of active or inactive are those of the source. No stated cut-off is given here; in the data, active = GI50 up to about 1.1 µM and inactive = higher. Some results are limits rather than exact numbers.

Some test systems named below: RXF 393; M14; SN12C; COLO 205; SF-539; LOX IMVI; HCT-116; HCC 2998; A498; HL-60; HCT-15; SR; SF-295; IGROV-1; NCI-H460; CAKI-1; NCI-H522.
Common to all, as to assay: growth of human tumour cells (NCI), 48 h

As for `N#CCN1C(=O)c2cccc3cc([N+](=O)[O-])cc(c23)C1=O`, the GI50 in the assay on RXF 393 is 28.4 µM (inactive); in the assay on M14 it was 37.3 µM (inactive); in the assay on SN12C, 29.4 µM (inactive); in the assay with COLO 205 it was 35.3 µM (inactive); in the assay on SF-539 it was 33 µM (inactive); in the assay on LOX IMVI, 21.6 µM (inactive). Besides, the GI50 was 32.2 µM (inactive) in the assay on HCT-116; 44.8 µM (inactive) in the assay with HCC 2998; 47.1 µM (inactive) in the assay on A498; 23.8 µM (inactive) in the assay with HL-60; 28 µM with HCT-15; 5.69 µM (inactive) in the assay on SR. The GI50 with SF-295 is 61.9 µM (inactive); with IGROV-1 it was 42.9 µM (inactive); with NCI-H460, 29 µM (inactive).

For the compound `C#CCNC(=O)NCCCCC(NC(C)=O)C(=O)NCc1ccccc1` (stereo unspecified), the GI50 in the assay with RXF 393, with M14, in the assay with CAKI-1, in the assay with SN12C, with COLO 205 and in the assay on SF-539 was > 100 µM (inactive) in each case. Also, the GI50 in the assay with LOX IMVI was > 100 µM (inactive); in the assay with HCT-116, > 100 µM (inactive); in the assay on HCC 2998 it was > 100 µM (inactive); in the assay on A498 it was > 100 µM (inactive); with HCT-15, above 100 µM; in the assay with SR, > 100 µM (inactive). Moreover, the GI50 in the assay on SF-295, with NCI-H522, in the assay on IGROV-1 and in the assay with NCI-H460 was > 100 µM (inactive) each time.

On to `N#CC1(Cc2ccc(N)cc2)c2ccccc2C=CN1C(=O)c1ccccc1` (stereo unspecified), for which the GI50 in the assay with RXF 393 is 27.4 µM (inactive); with M14, 25.6 µM (inactive); in the assay with SN12C, 41.2 µM (inactive); in the assay on COLO 205, 27.3 µM (inactive); in the assay on SF-539, 60.5 µM (inactive); in the assay with LOX IMVI it was 51.6 µM (inactive). Besides, the GI50 with HCT-116 is 54 µM (inactive); in the assay with HCC 2998 it was > 100 µM (inactive); in the assay on A498, 40 µM (inactive); in the assay with HL-60 it was 15.8 µM (inactive); in the assay with SR, 24.8 µM (inactive); with SF-295, 33 µM (inactive). The figures for the GI50 in the assay on NCI-H522 and in the assay on IGROV-1 were 60.1 µM (inactive) and 77.6 µM (inactive), respectively.

As for `Cc1cccc(C)c1NC(=O)C1=NC(=S)NC(c2ccccc2)C1c1nc2ccccc2s1` (stereo unspecified), the GI50 with RXF 393, in the assay with M14, with CAKI-1, with SN12C, in the assay with COLO 205 and with SF-539 was > 100 µM (inactive) throughout. For the same compound, the GI50 in the assay with HCT-116, with HCC 2998, in the assay on A498, with HL-60, in the assay on SR and in the assay with SF-295 was > 100 µM (inactive) in each case. In addition, the GI50 in the assay on NCI-H522, in the assay with IGROV-1 and in the assay with NCI-H460 was > 100 µM (inactive) in each case.

Consider `CC(C)(C)C1CCC(O)(c2ccccc2)CC1` (stereo unspecified), for which the GI50 was 50.7 µM (inactive) with RXF 393; 71.8 µM (inactive) in the assay with M14; 69.5 µM (inactive) in the assay with SN12C; > 100 µM (inactive) in the assay on COLO 205; > 100 µM (inactive) in the assay on SF-539; 77.6 µM (inactive) in the assay on LOX IMVI. Further, the GI50 in the assay on HCT-116 was 96.2 µM (inactive); with HCC 2998, > 100 µM (inactive); in the assay with A498 it was > 100 µM (inactive); in the assay on HL-60 it was 27.4 µM (inactive); in the assay on HCT-15 it was 94.2 µM; in the assay with SR it was 33.4 µM (inactive). The GI50 in the assay with SF-295 was > 100 µM (inactive); in the assay on NCI-H522, 40.6 µM (inactive); in the assay on IGROV-1 it was > 100 µM (inactive); in the assay with NCI-H460 it was > 100 µM (inactive).
